Reference: PubChem BioAssay (NCI)
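The compound was tested at five concentrations on cells cultured in 96-well plates, with a 48-hour exposure period. The concentration for 50% growth inhibition is given as GI50. TGI denotes the concentration required for complete inhibition of growth.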

Columns and labels:
Experiment in all cases: DTP human tumour cell line panel, 48 h
A498 renal = test system: A498 renal
ACHN renal = test system: ACHN renal
BT-549 breast = test system: BT-549 breast
CAKI-1 renal = test system: CAKI-1 renal
COLO 205 colon = test system: COLO 205 colon
EKVX NSCLC = test system: EKVX NSCLC
HCT-15 colon = test system: HCT-15 colon
HOP-62 NSCLC = test system: HOP-62 NSCLC
HS 578T breast = test system: HS 578T breast
HT29 colon = test system: HT29 colon
IGROV1 ovarian = test system: IGROV1 ovarian
KM12 colon = test system: KM12 colon
LOX IMVI melanoma = test system: LOX IMVI melanoma
M14 melanoma = test system: M14 melanoma
MALME-3M melanoma = test system: MALME-3M melanoma
MCF7 breast = test system: MCF7 breast
MDA-MB-231 breast = test system: MDA-MB-231 breast
MDA-MB-435 = test system: MDA-MB-435
NCI-H226 lung = test system: NCI-H226 lung
NCI-H23 lung = test system: NCI-H23 lung
NCI-H460 lung = test system: NCI-H460 lung
NCI-H522 lung = test system: NCI-H522 lung
NCI/ADR-RES ovarian = test system: NCI/ADR-RES ovarian
OVCAR-3 ovarian = test system: OVCAR-3 ovarian
OVCAR-4 ovarian = test system: OVCAR-4 ovarian
OVCAR-5 ovarian = test system: OVCAR-5 ovarian
OVCAR-8 ovarian = test system: OVCAR-8 ovarian
PC-3 prostate = test system: PC-3 prostate
RPMI-8226 leukemia = test system: RPMI-8226 leukemia
RXF 393 renal = test system: RXF 393 renal
SF-268 CNS = test system: SF-268 CNS
SF-295 CNS = test system: SF-295 CNS
SF-539 CNS = test system: SF-539 CNS
SK-MEL-2 melanoma = test system: SK-MEL-2 melanoma
SK-MEL-28 melanoma = test system: SK-MEL-28 melanoma
SK-MEL-5 melanoma = test system: SK-MEL-5 melanoma
SK-OV-3 ovarian = test system: SK-OV-3 ovarian
SN12C renal = test system: SN12C renal
SNB-75 CNS = test system: SNB-75 CNS
SW-620 colon = test system: SW-620 colon
TK-10 renal = test system: TK-10 renal
U251 CNS = test system: U251 CNS
UACC-257 melanoma = test system: UACC-257 melanoma
UACC-62 melanoma = test system: UACC-62 melanoma
UO-31 renal = test system: UO-31 renal
786-0 renal = test system: 786-0 renal
A549 NSCLC = test system: A549 NSCLC
CCRF-CEM leukemia = test system: CCRF-CEM leukemia
DU-145 prostate = test system: DU-145 prostate
HCC-2998 colon = test system: HCC-2998 colon
HCT-116 colon = test system: HCT-116 colon
HL-60(TB) leukemia = test system: HL-60(TB) leukemia
HOP-92 NSCLC = test system: HOP-92 NSCLC
K-562 leukemia = test system: K-562 leukemia
SNB-19 CNS = test system: SNB-19 CNS

C#CC[C@@H]1C[C@]2(C)[C@H]3CC[C@@H]4[C@H]5C(C(=C)C)CC[C@]5(C(=O)NCCCCN)CC[C@@]4(C)[C@]3(C)CC[C@H]2C(C)(C)[C@H]1OC(C)=O (stereo not given in full)
GI50 (A498 renal): 1780 nM
TGI (A498 renal): 3190 nM
GI50 (ACHN renal): 1650 nM
TGI (ACHN renal): 3010 nM
GI50 (BT-549 breast): 1760 nM
TGI (BT-549 breast): 3340 nM
GI50 (CAKI-1 renal): 1600 nM
TGI (CAKI-1 renal): 3070 nM
GI50 (COLO 205 colon): 1680 nM
TGI (COLO 205 colon): 3300 nM
GI50 (EKVX NSCLC): 1840 nM
TGI (EKVX NSCLC): 3780 nM
GI50 (HCT-15 colon): 1730 nM
TGI (HCT-15 colon): 3450 nM
GI50 (HOP-62 NSCLC): 1910 nM
TGI (HOP-62 NSCLC): 4070 nM
GI50 (HS 578T breast): 1820 nM
TGI (HS 578T breast): 3810 nM
GI50 (HT29 colon): 1900 nM
TGI (HT29 colon): 4040 nM
GI50 (IGROV1 ovarian): 1730 nM
TGI (IGROV1 ovarian): 3350 nM
GI50 (KM12 colon): 1810 nM
TGI (KM12 colon): 3360 nM
GI50 (LOX IMVI melanoma): 1560 nM
TGI (LOX IMVI melanoma): 3000 nM
GI50 (M14 melanoma): 1770 nM
TGI (M14 melanoma): 3460 nM
GI50 (MALME-3M melanoma): 1680 nM
TGI (MALME-3M melanoma): 3330 nM
GI50 (MCF7 breast): 1670 nM
TGI (MCF7 breast): 3860 nM
GI50 (MDA-MB-231 breast): 1790 nM
TGI (MDA-MB-231 breast): 3450 nM
GI50 (MDA-MB-435): 1730 nM
TGI (MDA-MB-435): 3190 nM
GI50 (NCI-H226 lung): 2030 nM
TGI (NCI-H226 lung): 4840 nM
GI50 (NCI-H23 lung): 1850 nM
TGI (NCI-H23 lung): 3530 nM
GI50 (NCI-H460 lung): 1910 nM
TGI (NCI-H460 lung): 3710 nM
GI50 (NCI-H522 lung): 1800 nM
TGI (NCI-H522 lung): 3670 nM
GI50 (NCI/ADR-RES ovarian): 1820 nM
TGI (NCI/ADR-RES ovarian): 3980 nM
GI50 (OVCAR-3 ovarian): 1780 nM
TGI (OVCAR-3 ovarian): 3330 nM
GI50 (OVCAR-4 ovarian): 1760 nM
TGI (OVCAR-4 ovarian): 3330 nM
GI50 (OVCAR-5 ovarian): 1670 nM
TGI (OVCAR-5 ovarian): 3060 nM
GI50 (OVCAR-8 ovarian): 2210 nM
TGI (OVCAR-8 ovarian): 5340 nM
GI50 (PC-3 prostate): 1640 nM
TGI (PC-3 prostate): 3170 nM
GI50 (RPMI-8226 leukemia): 2100 nM
TGI (RPMI-8226 leukemia): 5060 nM
GI50 (RXF 393 renal): 1550 nM
TGI (RXF 393 renal): 3140 nM
GI50 (SF-268 CNS): 1850 nM
TGI (SF-268 CNS): 3930 nM
GI50 (SF-295 CNS): 1840 nM
TGI (SF-295 CNS): 3410 nM
GI50 (SF-539 CNS): 1660 nM
TGI (SF-539 CNS): 3110 nM
GI50 (SK-MEL-2 melanoma): 1710 nM
TGI (SK-MEL-2 melanoma): 3400 nM
GI50 (SK-MEL-28 melanoma): 1760 nM
TGI (SK-MEL-28 melanoma): 3250 nM
GI50 (SK-MEL-5 melanoma): 1800 nM
TGI (SK-MEL-5 melanoma): 3270 nM
GI50 (SK-OV-3 ovarian): 1940 nM
TGI (SK-OV-3 ovarian): 3540 nM
GI50 (SN12C renal): 1730 nM
TGI (SN12C renal): 3340 nM
GI50 (SNB-75 CNS): 1410 nM
TGI (SNB-75 CNS): 2780 nM
GI50 (SW-620 colon): 1830 nM
TGI (SW-620 colon): 3740 nM
GI50 (TK-10 renal): 1860 nM
TGI (TK-10 renal): 3480 nM
GI50 (U251 CNS): 1810 nM
TGI (U251 CNS): 3510 nM
GI50 (UACC-257 melanoma): 1890 nM
TGI (UACC-257 melanoma): 3770 nM
GI50 (UACC-62 melanoma): 1820 nM
TGI (UACC-62 melanoma): 3260 nM
GI50 (UO-31 renal): 1560 nM
TGI (UO-31 renal): 2950 nM

CNCCCNc1nc2ccccc2c2c(=O)c3cc(F)ccc3sc12
GI50 (786-0 renal): 1440 nM
TGI (786-0 renal): 2870 nM
GI50 (A498 renal): 1350 nM
TGI (A498 renal): 2700 nM
GI50 (A549 NSCLC): 1660 nM
TGI (A549 NSCLC): 3610 nM
GI50 (ACHN renal): 1490 nM
TGI (ACHN renal): 2810 nM
GI50 (BT-549 breast): 1790 nM
TGI (BT-549 breast): 3320 nM
GI50 (CAKI-1 renal): 1480 nM
TGI (CAKI-1 renal): 2800 nM
GI50 (CCRF-CEM leukemia): 1800 nM
TGI (CCRF-CEM leukemia): 4340 nM
GI50 (COLO 205 colon): 1770 nM
TGI (COLO 205 colon): 3780 nM
GI50 (DU-145 prostate): 1660 nM
TGI (DU-145 prostate): 3030 nM
GI50 (EKVX NSCLC): 1550 nM
TGI (EKVX NSCLC): 2940 nM
GI50 (HCC-2998 colon): 1680 nM
TGI (HCC-2998 colon): 3290 nM
GI50 (HCT-116 colon): 1500 nM
TGI (HCT-116 colon): 2920 nM
GI50 (HCT-15 colon): 1420 nM
TGI (HCT-15 colon): 2760 nM
GI50 (HL-60(TB) leukemia): 1810 nM
TGI (HL-60(TB) leukemia): 3690 nM
GI50 (HOP-62 NSCLC): 1500 nM
TGI (HOP-62 NSCLC): 3230 nM
GI50 (HOP-92 NSCLC): 1020 nM
TGI (HOP-92 NSCLC): 2420 nM
GI50 (HS 578T breast): 1450 nM
TGI (HS 578T breast): 3110 nM
GI50 (HT29 colon): 1650 nM
TGI (HT29 colon): 3450 nM
GI50 (IGROV1 ovarian): 1370 nM
TGI (IGROV1 ovarian): 2760 nM
GI50 (K-562 leukemia): 1900 nM
TGI (K-562 leukemia): 5080 nM
GI50 (KM12 colon): 1630 nM
TGI (KM12 colon): 3100 nM
GI50 (LOX IMVI melanoma): 1470 nM
TGI (LOX IMVI melanoma): 2800 nM
GI50 (M14 melanoma): 1720 nM
TGI (M14 melanoma): 3220 nM
GI50 (MALME-3M melanoma): 1550 nM
TGI (MALME-3M melanoma): 3010 nM
GI50 (MCF7 breast): 1410 nM
TGI (MCF7 breast): 2950 nM
GI50 (MDA-MB-231 breast): 1330 nM
TGI (MDA-MB-231 breast): 2700 nM
GI50 (MDA-MB-435): 1590 nM
TGI (MDA-MB-435): 2940 nM
GI50 (NCI-H226 lung): 1720 nM
TGI (NCI-H226 lung): 3280 nM
GI50 (NCI-H23 lung): 1690 nM
TGI (NCI-H23 lung): 3150 nM
GI50 (NCI-H460 lung): 1380 nM
TGI (NCI-H460 lung): 2670 nM
GI50 (NCI-H522 lung): 1860 nM
TGI (NCI-H522 lung): 3730 nM
GI50 (OVCAR-3 ovarian): 1560 nM
TGI (OVCAR-3 ovarian): 2950 nM
GI50 (OVCAR-4 ovarian): 1690 nM
TGI (OVCAR-4 ovarian): 3250 nM
GI50 (OVCAR-5 ovarian): 1620 nM
TGI (OVCAR-5 ovarian): 3030 nM
GI50 (PC-3 prostate): 1640 nM
TGI (PC-3 prostate): 3250 nM
GI50 (RXF 393 renal): 1340 nM
TGI (RXF 393 renal): 2750 nM
GI50 (SF-268 CNS): 1470 nM
TGI (SF-268 CNS): 2990 nM
GI50 (SF-295 CNS): 1810 nM
TGI (SF-295 CNS): 3230 nM
GI50 (SF-539 CNS): 1740 nM
TGI (SF-539 CNS): 3160 nM
GI50 (SK-MEL-2 melanoma): 1940 nM
TGI (SK-MEL-2 melanoma): 3650 nM
GI50 (SK-MEL-28 melanoma): 1830 nM
TGI (SK-MEL-28 melanoma): 3250 nM
GI50 (SK-MEL-5 melanoma): 1690 nM
TGI (SK-MEL-5 melanoma): 3070 nM
GI50 (SN12C renal): 1610 nM
TGI (SN12C renal): 3050 nM
GI50 (SNB-19 CNS): 1650 nM
TGI (SNB-19 CNS): 3110 nM
GI50 (SNB-75 CNS): 1410 nM
TGI (SNB-75 CNS): 2760 nM
GI50 (SW-620 colon): 1480 nM
TGI (SW-620 colon): 2850 nM
GI50 (TK-10 renal): 1800 nM
TGI (TK-10 renal): 3410 nM
GI50 (UACC-257 melanoma): 1920 nM
TGI (UACC-257 melanoma): 3740 nM
GI50 (UACC-62 melanoma): 1760 nM
TGI (UACC-62 melanoma): 3170 nM
GI50 (UO-31 renal): 1310 nM
TGI (UO-31 renal): 2580 nM
